From paper PMC9683861 (Journal of Molecular Biology, 2022)
Entries after “also recorded” stand apart in the source; their conditions may differ. Non-standard residues stand in square brackets, D forms with d. Residues, ends and D or L forms follow the SMILES beside them. No end group written: not given here. *: point of attachment. FITC = O=C1OC2(c3ccc(O)cc3Oc3cc(O)ccc32)c2ccc(NC(=S)*)cc21; pT = C[C@@H](OP(=O)(O)O)[C@H](N)C(=O)O; pS = N[C@@H](COP(=O)(O)O)C(=O)O

Tests used:
14-3-3γ (gamma) = 14-3-3γ (gamma) (Homo sapiens, UniProt P61981); type: binding
14-3-3σ (sigma) = 14-3-3σ (sigma) (Homo sapiens, UniProt P31947); type: binding
[1] = system: all seven human 14-3-3 isoforms; type: binding
14-3-3γ = 14-3-3γ (Homo sapiens, UniProt P61981); type: binding
crystal structure = target: the molecule itself; assay: crystal structure
[2] = target: T1, Untagged full-length human 14-3-3γ (human, UniProt P61981 1-247); assay: fluorescence polarisation
T1 sequence: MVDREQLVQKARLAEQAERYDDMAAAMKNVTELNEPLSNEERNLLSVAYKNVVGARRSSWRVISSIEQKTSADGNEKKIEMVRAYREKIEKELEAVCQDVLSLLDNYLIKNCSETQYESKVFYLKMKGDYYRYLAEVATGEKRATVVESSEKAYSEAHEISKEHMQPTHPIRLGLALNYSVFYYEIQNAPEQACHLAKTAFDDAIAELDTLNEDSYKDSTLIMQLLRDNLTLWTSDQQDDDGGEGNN

Chain of 14-3-3σ (sigma) (P31947 whole entry, canonical isoform): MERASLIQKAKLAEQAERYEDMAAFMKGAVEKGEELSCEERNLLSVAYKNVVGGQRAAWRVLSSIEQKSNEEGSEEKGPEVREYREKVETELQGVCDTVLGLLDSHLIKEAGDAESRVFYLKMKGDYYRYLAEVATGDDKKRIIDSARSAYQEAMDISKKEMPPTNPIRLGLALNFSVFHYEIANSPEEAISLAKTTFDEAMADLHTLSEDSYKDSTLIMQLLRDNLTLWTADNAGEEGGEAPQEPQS

O=C1OC2(c3ccc(O)cc3Oc3cc(O)ccc32)c2ccc(N=C=S)cc21 [free FITC, fluorescein 5-isothiocyanate, reference compound]
Binding to MBP-14-3-3 (free FITC control) (14-3-3γ (gamma)): did not show significant binding

CSCC[C@H](NC(=O)[C@H](CCCNC(=N)N)NC(=O)[C@H](C)NC(=O)[C@@H]1CCCN1C(=O)[C@H](CO)NC(=O)[C@@H](NC(=O)CNC(=O)[C@H](CCCNC(=N)N)NC(=O)[C@H](CO)NC(=O)[C@H](CO)NC(=O)[C@H](Cc1c[nH]c2ccccc12)NC(=S)Nc1ccc2c(c1)C(=O)OC21c2ccc(O)cc2Oc2cc(O)ccc21)[C@@H](C)OP(=O)(O)O)C(=O)O [pT205] ({FITC}-WSSRG[pT]SPARM-OH)
Selectivity coefficient (KD pS197 / KD pT205), gamma (14-3-3γ (gamma)): ~7 | Ratio: affinity of 14-3-3σ to pT205 versus pS197 peptide (14-3-3σ (sigma)): ~3 times tighter | Affinity preference [1]: preferred over the pS197-motif by all seven human 14-3-3 isoforms; also recorded: consistently tighter affinity than the pS197 fragment | KD ratio between weakest (14-3-3σ/pS197) and strongest (14-3-3γ/pT205) pair [1]: ~10 fold | Order of affinity over the 14-3-3 isoforms [1]: gamma (γ) > eta (η) > beta (β) > epsilon (ε) > zeta (ζ) > tau (τ) > sigma (σ) | Ratio of the average KD values pS197/pT205 [1]: 4.3 fold

WLRRApSAPLPGLK [pB6]
Displacement of FITC-labeled peptide from 14-3-3 (14-3-3γ): could be disrupted

B1: C-terminally truncated human 14-3-3σ (residues 1–231) Clu3 mutant (75EEK77 → 75AAA77) (domain or fragment)
chain: MERASLIQKAKLAEQAERYEDMAAFMKGAVEKGEELSCEERNLLSVAYKNVVGGQRAAWRVLSSIEQKSNEEGSAAAGPEVREYREKVETELQGVCDTVLGLLDSHLIKEAGDAESRVFYLKMKGDYYRYLAEVATGDDKKRIIDSARSAYQEAMDISKKEMPPTNPIRLGLALNFSVFHYEIANSPEEAISLAKTTFDEAMADLHTLSEDSYKDSTLIMQLLRDNLTLWT
stoichiometry N (crystal structure): 2

B2: C-terminally truncated human 14-3-3σ (residues 1–231) Clu1 mutant (159KKE161 → 159AAA161) (domain or fragment)
chain: MERASLIQKAKLAEQAERYEDMAAFMKGAVEKGEELSCEERNLLSVAYKNVVGGQRAAWRVLSSIEQKSNEEGSEEKGPEVREYREKVETELQGVCDTVLGLLDSHLIKEAGDAESRVFYLKMKGDYYRYLAEVATGDDKKRIIDSARSAYQEAMDISAAAMPPTNPIRLGLALNFSVFHYEIANSPEEAISLAKTTFDEAMADLHTLSEDSYKDSTLIMQLLRDNLTLWT
stoichiometry N (crystal structure): 2

B3: Unlabeled phosphopeptide of human HSPB6 (pB6) WLRRApSAPLPGLK (peptide)
peptide: WLRRA[pS]APLPGLK
binding result [2]: binds
